Measurements published in publication PMC10187093, “Synthesis, in silico modelling, and in vitro biological evaluation of substituted pyrazole derivatives as potential anti-skin cancer, anti-tyrosinase, and antioxidant agents” (Journal of Enzyme Inhibition and Medicinal Chemistry, 2023).

Biological target: T1, mushroom tyrosinase (Agaricus bisporus, UniProt C7FF04)
T1 construct: purchased Sigma-Aldrich Chemical Company (St. Louis, MO) and MP Biomedicals (Irvine, CA)
Test: In vitro mushroom tyrosinase inhibition assay
Assay type: biochemical
Conditions: 500 µM, single-concentration screen; read-out: % Inhibition of tyrosinase
Protocol: The anti-tyrosinase potential of all the synthesised derivatives was determined by an enzymatic tyrosinase inhibition assay based on their ability to inhibit the substrate, L-tyrosine, from binding to the tyrosinase enzyme. […] Test samples were dissolved in DMSO at a concentration of 10 mM and then diluted to different concentrations with phosphate buffer (0.1 M, pH 6.8). Each well contained 40 µL of the sample with 80 µL of phosphate buffer solution (0.1 M, pH 6.8), 40 µL of tyrosinase enzyme (100 units/mL), and 40 µL L-tyrosine (2.5 mM). The mixture was incubated for 30 min at room temperature, and absorbance was measured at 490 nm. Each sample was accompanied by a sample blank containing all components except tyrosinase. […] The percentage of tyrosinase inhibition was calculated as follows: ((ΔAcontrol – ΔAsample)/ΔAcontrol) × 100. IC50 values denoted the sample concentration required to inhibit 50% tyrosinase activity (Table S1).

T1 sequence (C7FF04 1-392 limits assumed): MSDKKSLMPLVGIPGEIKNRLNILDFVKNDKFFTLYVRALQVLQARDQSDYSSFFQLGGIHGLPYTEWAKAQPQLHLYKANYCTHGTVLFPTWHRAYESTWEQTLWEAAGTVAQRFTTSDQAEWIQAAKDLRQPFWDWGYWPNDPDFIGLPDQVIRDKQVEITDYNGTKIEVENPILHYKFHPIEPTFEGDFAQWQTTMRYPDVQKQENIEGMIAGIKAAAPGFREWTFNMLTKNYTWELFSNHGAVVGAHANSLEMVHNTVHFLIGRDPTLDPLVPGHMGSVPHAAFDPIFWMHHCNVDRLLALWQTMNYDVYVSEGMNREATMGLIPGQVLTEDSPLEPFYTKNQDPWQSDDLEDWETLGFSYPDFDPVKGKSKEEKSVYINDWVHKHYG

Q: Which inhibition at 500 µM does the source give for `Cc1cc(-c2ccccc2)n(-c2ccc(S(N)(=O)=O)cc2)n1` [P19, 4-(3-Methyl-5-phenyl-1H-pyrazol-1-yl)benzenesulfonamide] here?
A: 21.2%

Q: With `O=C1CC(c2ccc(Br)cc2)=NN1c1ccc(Br)cc1` [P22] as the compound, how does the inhibition at 500 µM read?
A: 46.9%

Q: For `CC1=NN(c2ccccc2)C(=O)C1(C)O` (stereo not shown) [P20], which inhibition at 500 µM is on record?
A: 39.7%

Q: Which inhibition at 500 µM does the source give for `COc1ccc(-n2nc(C)cc2-c2ccccc2)cc1` [P18, 1-(4-Methoxyphenyl)-3-methyl-5-phenyl-1H-pyrazole] here?
A: 92.2 ± 3.7%

Same assay, conditions: > 500 = not biologically relevant; read-out: IC50 Value, mushroom tyrosinase inhibition (Table S1)

Q: With `Cc1cc(-c2ccccc2)n(-c2ccc(S(N)(=O)=O)cc2)n1` [P19, 4-(3-Methyl-5-phenyl-1H-pyrazol-1-yl)benzenesulfonamide] as the compound, how does the IC50 read?
A: > 500 µM

Q: With `O=C1CC(c2ccc(Br)cc2)=NN1c1ccc(Br)cc1` [P22] as the compound, how does the IC50 read?
A: > 500 µM

Q: Which IC50 does the source give for `CC1=NN(c2ccccc2)C(=O)C1(C)O` (stereo not shown) [P20] here?
A: > 500 µM

Q: With `COc1ccc(-n2nc(C)cc2-c2ccccc2)cc1` [P18, 1-(4-Methoxyphenyl)-3-methyl-5-phenyl-1H-pyrazole] as the compound, how does the IC50 read?
A: 156 µM

Test system: not listed separately
Test: DPPH free radical scavenging assay
Conditions: not given
Protocol: An initial screen was done of all 25 derivatives at a concentration of 1 mM. […] Methanol was used as the diluent, and 100 µL of DPPH (200 µM; Sigma-Aldrich, St. Louis, MO) was added to each well. […] The scavenging capacity (SC) was calculated as SC% = ((ΔAcontrol – ΔAsample)/ΔAcontrol) × 100%, where ΔAcontrol was the absorbance of the reagent blank, and ΔAsample was the absorbance of the test samples. The control contained all reagents except the compounds, and all tests were performed in triplicate. Quercetin served as a positive control. The DPPH methanolic solution (1 mL) mixed with DMSO (5 µL) served as a negative control.

Q: Which “DPPH antioxidant activity (in words)” value does the source give for `CC1=NN(c2ccccc2)C(=O)C1(C)O` (stereo not shown) [P20] here?
A: no appreciable antioxidant activity

Same assay, conditions: 1 mM

Q: For `Cc1cc(-c2ccccc2)n(-c2ccc(S(N)(=O)=O)cc2)n1` [P19, 4-(3-Methyl-5-phenyl-1H-pyrazol-1-yl)benzenesulfonamide], which “Percent Scavenging (DPPH)” value is on record?
A: -18.51%

Q: For `O=C1CC(c2ccc(Br)cc2)=NN1c1ccc(Br)cc1` [P22], which “Percent Scavenging (DPPH)” value is on record?
A: 77.86%

Q: For `CC1=NN(c2ccccc2)C(=O)C1(C)O` (stereo not shown) [P20], which “Percent Scavenging (DPPH)” value is on record?
A: -20.03%

Q: For `COc1ccc(-n2nc(C)cc2-c2ccccc2)cc1` [P18, 1-(4-Methoxyphenyl)-3-methyl-5-phenyl-1H-pyrazole], which “Percent Scavenging (DPPH)” value is on record?
A: -24.28%

Same assay, conditions: N.A. = No Activity; > 1000 = not biologically relevant; read-out: IC50 Value, DPPH antioxidant activity (Table S4)

Q: For `O=C1CC(c2ccc(Br)cc2)=NN1c1ccc(Br)cc1` [P22], which IC50 is on record?
A: 276 µM

Test system: GFP-A431
Test: MTT antiproliferative/cytotoxicity assay, A431
Assay type: cell-based, human
Conditions: Homo sapiens, A-431, 48 h, non-melanoma, MTT, 48 h; read-out: IC50 GFP-A431
Protocol: (§1) Human-derived GFP-expressing melanoma A375 and epidermoid carcinoma A431 cell lines were purchased from Angio-Proteomie (Boston, MA). Human melanoma carcinoma SK-MEL-28 and human immortalised keratinocytes (HaCaT) cell lines were acquired from American Type Culture Collection (ATCC; Manassas, VA). […] The growth media of incubated cells were changed every 2–3 days until they attained 70–80% confluence, after which they were sub-cultured for experiments and re-passaging. DMSO was used as the vehicle to prepare a 10 mM stock solution of the test compounds.
(§2) Stock solutions (10 mM) were prepared by dissolving each compound to be screened in DMSO.

Q: Which IC50 does the source give for `O=C1CC(c2ccc(Br)cc2)=NN1c1ccc(Br)cc1` [P22] here?
A: 13 µM

Q: For `CC1=NN(c2ccccc2)C(=O)C1(C)O` (stereo not shown) [P20], which IC50 is on record?
A: 120 ± 2.6 µM

Q: For `COc1ccc(-n2nc(C)cc2-c2ccccc2)cc1` [P18, 1-(4-Methoxyphenyl)-3-methyl-5-phenyl-1H-pyrazole], which IC50 is on record?
A: 25.9 ± 0.9 µM

Same assay, conditions: IC50 HaCaT divided by IC50 A431

Q: For `O=C1CC(c2ccc(Br)cc2)=NN1c1ccc(Br)cc1` [P22], which “selectivity index (SI) A431” value is on record?
A: 3.8

Q: For `COc1ccc(-n2nc(C)cc2-c2ccccc2)cc1` [P18, 1-(4-Methoxyphenyl)-3-methyl-5-phenyl-1H-pyrazole], which “selectivity index (SI) A431” value is on record?
A: 2.0

Same assay, conditions: non-melanoma, MTT, 48 h; read-out: IC50 GFP-A431

Q: With `O=C1CC(c2ccc(Br)cc2)=NN1c1ccc(Br)cc1` [P22] as the compound, how does the IC50 read?
A: 12.6 ± 1.6 µM

Test system: A375
Test: MTT antiproliferative/cytotoxicity assay, A375
Assay type: cell-based, human
Conditions: Homo sapiens, A-375, 48 h, melanoma, MTT, 48 h; read-out: IC50 A375
Protocol: (§3) Human-derived GFP-expressing melanoma A375 and epidermoid carcinoma A431 cell lines were purchased from Angio-Proteomie (Boston, MA). Human melanoma carcinoma SK-MEL-28 and human immortalised keratinocytes (HaCaT) cell lines were acquired from American Type Culture Collection (ATCC; Manassas, VA). Human cutaneous SCC cell line SCC-12[192] was generously provided by Dr. James G. Rheinwald to Dr. Tatiana Efimova. Except SK-MEL-28, which was cultured in an RPMI-1640 medium supplemented with 5% FBS, all other human immortalised cell lines were grown and maintained in DMEM containing varying percentages of FBS; 5% FBS for A431, SCC-12, and HaCaT lines, and 10% FBS for A375. All culture media were routinely supplemented with 1% PEST 100X (100 U/mL penicillin, 100 μg/mL streptomycin), and cells were cultured in incubators maintained at 37 °C under an atmosphere of 95% humidity, 20% O2, and 5% CO2. The growth media of incubated cells were changed every 2–3 days until they attained 70–80% confluence, after which they were sub-cultured for experiments and re-passaging. DMSO was used as the vehicle to prepare a 10 mM stock solution of the test compounds.
(§4) Stock solutions (10 mM) were prepared by dissolving each compound to be screened in DMSO. From these stock solutions, escalating concentrations were prepared using the corresponding cell growth media as a diluent, and the cells (65–75% confluent) were treated with (0–40 µM) or without the drug in sext- to octuplicate and incubated for 48 h. All treatment protocols and controls were prepared as previously described.
(§5) The potency and cytotoxicity of the test compounds against two cutaneous melanoma (A375 and SK-MEL-28) and two non-melanoma (A431 and SCC-12) SC cell lines in addition to a control immortalised normal human epidermal keratinocytes (HaCaT) cell line were assessed by MTT assay as previously described.

Q: With `Cc1cc(-c2ccccc2)n(-c2ccc(S(N)(=O)=O)cc2)n1` [P19, 4-(3-Methyl-5-phenyl-1H-pyrazol-1-yl)benzenesulfonamide] as the compound, how does the IC50 read?
A: 47.1 ± 4.2 µM

Q: With `O=C1CC(c2ccc(Br)cc2)=NN1c1ccc(Br)cc1` [P22] as the compound, how does the IC50 read?
A: 29 µM

Q: For `CC1=NN(c2ccccc2)C(=O)C1(C)O` (stereo not shown) [P20], which IC50 is on record?
A: 110 ± 15.4 µM

Q: With `COc1ccc(-n2nc(C)cc2-c2ccccc2)cc1` [P18, 1-(4-Methoxyphenyl)-3-methyl-5-phenyl-1H-pyrazole] as the compound, how does the IC50 read?
A: 48 ± 2.1 µM

Same assay, conditions: melanoma, MTT, 48 h; read-out: IC50 A375

Q: With `O=C1CC(c2ccc(Br)cc2)=NN1c1ccc(Br)cc1` [P22] as the compound, how does the IC50 read?
A: 28.7 ± 1.2 µM

Test system: HaCaT
Test: MTT cytotoxicity assay, noncancerous HaCaT keratinocytes
Assay type: cell-based, human
Conditions: Homo sapiens, HaCaT; control noncancerous keratinocytes, MTT, 48 h; read-out: IC50 HaCaT
Protocol: as §3, §4, §5

Q: Which IC50 does the source give for `Cc1cc(-c2ccccc2)n(-c2ccc(S(N)(=O)=O)cc2)n1` [P19, 4-(3-Methyl-5-phenyl-1H-pyrazol-1-yl)benzenesulfonamide] here?
A: 57 ± 1.3 µM

Q: For `O=C1CC(c2ccc(Br)cc2)=NN1c1ccc(Br)cc1` [P22], which IC50 is on record?
A: 47.6 ± 1.6 µM

Q: Which IC50 does the source give for `CC1=NN(c2ccccc2)C(=O)C1(C)O` (stereo not shown) [P20] here?
A: 47.7 ± 2.7 µM

Q: With `COc1ccc(-n2nc(C)cc2-c2ccccc2)cc1` [P18, 1-(4-Methoxyphenyl)-3-methyl-5-phenyl-1H-pyrazole] as the compound, how does the IC50 read?
A: 49.6 ± 1.5 µM

Test system: SCC-12
Test: MTT antiproliferative/cytotoxicity assay, SCC-12
Assay type: cell-based, human
Conditions: Homo sapiens, SCC12, 48 h, non-melanoma, MTT, 48 h; read-out: IC50 SCC-12
Protocol: as §1, §2

Q: For `O=C1CC(c2ccc(Br)cc2)=NN1c1ccc(Br)cc1` [P22], which IC50 is on record?
A: 19 µM

Q: Which IC50 does the source give for `CC1=NN(c2ccccc2)C(=O)C1(C)O` (stereo not shown) [P20] here?
A: 57.3 ± 0.2 µM

Q: Which IC50 does the source give for `COc1ccc(-n2nc(C)cc2-c2ccccc2)cc1` [P18, 1-(4-Methoxyphenyl)-3-methyl-5-phenyl-1H-pyrazole] here?
A: 21.9 ± 0.2 µM

Same assay, conditions: IC50 HaCaT divided by IC50 SCC-12

Q: For `O=C1CC(c2ccc(Br)cc2)=NN1c1ccc(Br)cc1` [P22], which “selectivity index (SI) SCC-12” value is on record?
A: 2.6

Q: With `COc1ccc(-n2nc(C)cc2-c2ccccc2)cc1` [P18, 1-(4-Methoxyphenyl)-3-methyl-5-phenyl-1H-pyrazole] as the compound, how does the “selectivity index (SI) SCC-12” value read?
A: 2.3

Same assay, conditions: non-melanoma, MTT, 48 h; read-out: IC50 SCC-12

Q: Which IC50 does the source give for `O=C1CC(c2ccc(Br)cc2)=NN1c1ccc(Br)cc1` [P22] here?
A: 18.7 ± 1.4 µM

Test system: SK-MEL-28
Test: MTT antiproliferative/cytotoxicity assay, SK-MEL-28
Assay type: cell-based, human
Conditions: Homo sapiens, SK-MEL-28, 48 h, melanoma, MTT, 48 h; read-out: IC50 SKMEL-28
Protocol: as §3, §4, §5

Q: Which IC50 does the source give for `Cc1cc(-c2ccccc2)n(-c2ccc(S(N)(=O)=O)cc2)n1` [P19, 4-(3-Methyl-5-phenyl-1H-pyrazol-1-yl)benzenesulfonamide] here?
A: 40.5 ± 3 µM

Q: With `O=C1CC(c2ccc(Br)cc2)=NN1c1ccc(Br)cc1` [P22] as the compound, how does the IC50 read?
A: 31 µM

Q: Which IC50 does the source give for `CC1=NN(c2ccccc2)C(=O)C1(C)O` (stereo not shown) [P20] here?
A: 50 ± 4.3 µM

Q: With `COc1ccc(-n2nc(C)cc2-c2ccccc2)cc1` [P18, 1-(4-Methoxyphenyl)-3-methyl-5-phenyl-1H-pyrazole] as the compound, how does the IC50 read?
A: 19.3 ± 2.4 µM

Same assay, conditions: melanoma, MTT, 48 h; read-out: IC50 SKMEL-28

Q: Which IC50 does the source give for `O=C1CC(c2ccc(Br)cc2)=NN1c1ccc(Br)cc1` [P22] here?
A: 31.3 ± 2.4 µM
